Reference: PubChem BioAssay AID1963975 (Molecular Pharmacology Branch, DTP, NCI, 2024)

Test system: 624824-186-R-J2-PDC multicell spheroids, viability
Test: Anticancer human tumor 624824-186-R-J2-PDC patient-derived colon adenocarcinoma cell line growth inhibition [PI3K]
Details: for IC50: curve of first compound; for viability, T/C: stronger effect = lower value
Procedure, shortened: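 Three cell types, namely tumor cells, endothelial cells and mesenchymal stem cells, formed each spheroid. Combinations with four PI3K inhibitors were screened at clinically achievable concentrations decreasing by half-log, and spheroid viability was recorded.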

[1] = second compound 0.0316 µM, first compound 0.0316 µM
[2] = second compound 0.0316 µM, first compound 0.1 µM
[3] = second compound 0.0316 µM, first compound 0.316 µM
[4] = second compound 0.0316 µM, first compound 1 µM
[5] = second compound 0.0316 µM, first compound 3.16 µM
[6] = second compound 0.0316 µM, first compound 10 µM
[7] = second compound 0.1 µM, first compound 0.0316 µM
[8] = second compound 0.1 µM, first compound 0.1 µM
[9] = second compound 0.1 µM, first compound 0.316 µM
[10] = second compound 0.1 µM, first compound 1 µM
[11] = second compound 0.1 µM, first compound 3.16 µM
[12] = second compound 0.1 µM, first compound 10 µM
[13] = second compound 0.316 µM, first compound 0.0316 µM
[14] = second compound 0.316 µM, first compound 0.1 µM
[15] = second compound 0.316 µM, first compound 0.316 µM
[16] = second compound 0.316 µM, first compound 1 µM
[17] = second compound 0.316 µM, first compound 3.16 µM
[18] = second compound 0.316 µM, first compound 10 µM
[19] = second compound 1 µM, first compound 0.0316 µM
[20] = second compound 1 µM, first compound 0.1 µM
[21] = second compound 1 µM, first compound 0.316 µM
[22] = second compound 1 µM, first compound 1 µM
[23] = second compound 1 µM, first compound 3.16 µM
[24] = second compound 1 µM, first compound 10 µM
[25] = second compound 3.16 µM, first compound 0.0316 µM
[26] = second compound 3.16 µM, first compound 0.1 µM
[27] = second compound 3.16 µM, first compound 0.316 µM
[28] = second compound 3.16 µM, first compound 1 µM
[29] = second compound 3.16 µM, first compound 3.16 µM
[30] = second compound 3.16 µM, first compound 10 µM
[31] = second compound 10 µM, first compound 0.0316 µM
[32] = second compound 10 µM, first compound 0.1 µM
[33] = second compound 10 µM, first compound 0.316 µM
[34] = second compound 10 µM, first compound 1 µM
[35] = second compound 10 µM, first compound 3.16 µM
[36] = second compound 10 µM, first compound 10 µM
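Note: spheroids exposed to agents for 7 days before viability read.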
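Throughout, for viability, T/C: 100% = DMSO vehicle treated spheroids.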

Compound: C#Cc1c(F)ccc2cc(O)cc(-c3ncc4c(N5CC6CCC(C5)N6)nc(OCC56CCCN5CC(F)C6)nc4c3F)c12 (stereo not drawn) + Cc1nc(NC(=O)N2CCCC2C(N)=O)sc1-c1ccnc(C(C)(C)C(F)(F)F)c1
- IC50 (second compound 0.0316 µM): > 10 µM
- IC50 (second compound 0.1 µM): > 10 µM
- IC50 (second compound 0.316 µM): > 10 µM
- IC50 (second compound 1 µM): > 10 µM
- IC50 (second compound 3.16 µM): > 10 µM
- IC50 (second compound 10 µM): > 10 µM
- viability, T/C [1]: 86.3%
- viability, T/C [2]: 82.9%
- viability, T/C [3]: 70.8%
- viability, T/C [4]: 80.9%
- viability, T/C [5]: 96.7%
- viability, T/C [6]: 71%
- viability, T/C [7]: 90.9%
- viability, T/C [8]: 83.5%
- viability, T/C [9]: 73%
- viability, T/C [10]: 76.6%
- viability, T/C [11]: 88.6%
- viability, T/C [12]: 60.4%
- viability, T/C [13]: 74.4%
- viability, T/C [14]: 67.2%
- viability, T/C [15]: 81.1%
- viability, T/C [16]: 84.2%
- viability, T/C [17]: 70.9%
- viability, T/C [18]: 73.2%
- viability, T/C [19]: 97%
- viability, T/C [20]: 82.7%
- viability, T/C [21]: 76.1%
- viability, T/C [22]: 82.1%
- viability, T/C [23]: 79.8%
- viability, T/C [24]: 82.2%
- viability, T/C [25]: 78.3%
- viability, T/C [26]: 83.8%
- viability, T/C [27]: 69.5%
- viability, T/C [28]: 81.8%
- viability, T/C [29]: 81.2%
- viability, T/C [30]: 71.5%
- viability, T/C [31]: 73.7%
- viability, T/C [32]: 74.2%
- viability, T/C [33]: 60%
- viability, T/C [34]: 58.5%
- viability, T/C [35]: 58%
- viability, T/C [36]: 56.3%

Compound: C=CC(=O)N1CCN(c2nc(=O)n(-c3c(C)ccnc3C(C)C)c3nc(-c4c(O)cccc4F)c(F)cc23)C(C)C1 (stereo not drawn) + Cc1nc(NC(=O)N2CCCC2C(N)=O)sc1-c1ccnc(C(C)(C)C(F)(F)F)c1
- IC50 (second compound 0.0316 µM): > 10 µM
- IC50 (second compound 0.1 µM): > 10 µM
- IC50 (second compound 0.316 µM): > 10 µM
- IC50 (second compound 1 µM): > 10 µM
- IC50 (second compound 3.16 µM): > 10 µM
- IC50 (second compound 10 µM): > 10 µM
- viability, T/C [1]: 98%
- viability, T/C [2]: 71.2%
- viability, T/C [3]: 101%
- viability, T/C [4]: 101%
- viability, T/C [5]: 92.8%
- viability, T/C [6]: 100%
- viability, T/C [7]: 91.9%
- viability, T/C [8]: 107%
- viability, T/C [9]: 105%
- viability, T/C [10]: 80%
- viability, T/C [11]: 93.9%
- viability, T/C [12]: 101%
- viability, T/C [13]: 112%
- viability, T/C [14]: 87.8%
- viability, T/C [15]: 91.2%
- viability, T/C [16]: 79.9%
- viability, T/C [17]: 90.8%
- viability, T/C [18]: 87%
- viability, T/C [19]: 86.2%
- viability, T/C [20]: 79.5%
- viability, T/C [21]: 70.4%
- viability, T/C [22]: 84.9%
- viability, T/C [23]: 85.2%
- viability, T/C [24]: 67.5%
- viability, T/C [25]: 86.8%
- viability, T/C [26]: 88.1%
- viability, T/C [27]: 92%
- viability, T/C [28]: 83%
- viability, T/C [29]: 82.6%
- viability, T/C [30]: 93.9%
- viability, T/C [31]: 79.2%
- viability, T/C [32]: 86.5%
- viability, T/C [33]: 79.5%
- viability, T/C [34]: 91.5%
- viability, T/C [35]: 84.1%
- viability, T/C [36]: 77.2%

Compound: CC(Cn1ccc(-c2ccc(C#N)c(Cl)c2)n1)NC(=O)c1cc(C(C)O)[nH]n1 (stereo not drawn) + Cc1nc(NC(=O)N2CCCC2C(N)=O)sc1-c1ccnc(C(C)(C)C(F)(F)F)c1
- IC50 (second compound 0.0316 µM): > 10 µM
- IC50 (second compound 0.1 µM): > 10 µM
- IC50 (second compound 0.316 µM): > 10 µM
- IC50 (second compound 1 µM): > 10 µM
- IC50 (second compound 3.16 µM): > 10 µM
- IC50 (second compound 10 µM): > 10 µM
- viability, T/C [1]: 85.3%
- viability, T/C [2]: 111%
- viability, T/C [3]: 70.8%
- viability, T/C [4]: 92.2%
- viability, T/C [5]: 93.3%
- viability, T/C [6]: 114%
- viability, T/C [7]: 102%
- viability, T/C [8]: 76.3%
- viability, T/C [9]: 74.3%
- viability, T/C [10]: 76.6%
- viability, T/C [11]: 88.2%
- viability, T/C [12]: 90%
- viability, T/C [13]: 96.9%
- viability, T/C [14]: 90.5%
- viability, T/C [15]: 86.1%
- viability, T/C [16]: 76.9%
- viability, T/C [17]: 82.5%
- viability, T/C [18]: 85.7%
- viability, T/C [19]: 88.6%
- viability, T/C [20]: 69.9%
- viability, T/C [21]: 71.5%
- viability, T/C [22]: 71.6%
- viability, T/C [23]: 87.9%
- viability, T/C [24]: 86.9%
- viability, T/C [25]: 80.5%
- viability, T/C [26]: 93%
- viability, T/C [27]: 89.7%
- viability, T/C [28]: 78.7%
- viability, T/C [29]: 80.2%
- viability, T/C [30]: 84.7%
- viability, T/C [31]: 64.8%
- viability, T/C [32]: 65.2%
- viability, T/C [33]: 74.8%
- viability, T/C [34]: 61.4%
- viability, T/C [35]: 69.6%
- viability, T/C [36]: 66.6%

Compound: CC1(C)CCC(Nc2ncc(C(F)(F)F)c(-c3c[nH]c4c(P(C)(C)=O)c(C#N)ccc34)n2)CN1 (stereo not drawn) + Cc1nc(NC(=O)N2CCCC2C(N)=O)sc1-c1ccnc(C(C)(C)C(F)(F)F)c1
- IC50 (second compound 0.0316 µM): 4.26 µM
- IC50 (second compound 0.1 µM): 4.34 µM
- IC50 (second compound 0.316 µM): 4.4 µM
- IC50 (second compound 1 µM): 4.64 µM
- IC50 (second compound 3.16 µM): 3.67 µM
- IC50 (second compound 10 µM): 1.61 µM
- viability, T/C [1]: 81.3%
- viability, T/C [2]: 99.4%
- viability, T/C [3]: 103%
- viability, T/C [4]: 121%
- viability, T/C [5]: 64.8%
- viability, T/C [6]: 7.6%
- viability, T/C [7]: 92.7%
- viability, T/C [8]: 92.9%
- viability, T/C [9]: 99.4%
- viability, T/C [10]: 108%
- viability, T/C [11]: 66.1%
- viability, T/C [12]: 7.74%
- viability, T/C [13]: 100%
- viability, T/C [14]: 81.8%
- viability, T/C [15]: 92.1%
- viability, T/C [16]: 115%
- viability, T/C [17]: 67.6%
- viability, T/C [18]: 6.46%
- viability, T/C [19]: 96%
- viability, T/C [20]: 93.4%
- viability, T/C [21]: 97.7%
- viability, T/C [22]: 93.6%
- viability, T/C [23]: 72%
- viability, T/C [24]: 5.53%
- viability, T/C [25]: 79%
- viability, T/C [26]: 83.8%
- viability, T/C [27]: 91.4%
- viability, T/C [28]: 74%
- viability, T/C [29]: 57.3%
- viability, T/C [30]: 5.49%
- viability, T/C [31]: 77.8%
- viability, T/C [32]: 73.8%
- viability, T/C [33]: 62%
- viability, T/C [34]: 54.5%
- viability, T/C [35]: 45.2%
- viability, T/C [36]: 6.69%
